{
  "source": "paper PMC10354740",
  "about": "(Journal of medicinal chemistry, 2022)",
  "key": {"hA3AR [1]": {"molecular_target": "T1, hA3AR (Homo sapiens, UniProt P0DMS8)", "T1 sequence (P0DMS8 1-318)": "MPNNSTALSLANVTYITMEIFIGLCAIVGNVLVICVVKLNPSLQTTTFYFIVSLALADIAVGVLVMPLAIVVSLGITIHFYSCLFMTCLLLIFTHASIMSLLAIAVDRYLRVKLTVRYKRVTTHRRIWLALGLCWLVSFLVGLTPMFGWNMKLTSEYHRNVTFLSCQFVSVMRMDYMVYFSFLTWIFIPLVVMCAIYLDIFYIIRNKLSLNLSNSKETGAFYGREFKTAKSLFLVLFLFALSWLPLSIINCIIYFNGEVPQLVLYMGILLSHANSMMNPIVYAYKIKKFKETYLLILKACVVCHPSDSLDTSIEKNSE", "conditions": "for enhancement of agonist efficacy at 0.1 μM: modulator 0.1 μM; for effect on agonist 52 potency: modulator 1 μM (30–34: 0.1 and 1.0 μM), compared to control"}, "hA3AR [2]": {"molecular_target": "T1, hA3AR", "conditions": "modulator 0.1 μM; cited from earlier work"}, "hA2B AR": {"molecular_target": "T2, hA2B AR (Homo sapiens, UniProt P29275)", "T2 sequence (P29275 1-332)": "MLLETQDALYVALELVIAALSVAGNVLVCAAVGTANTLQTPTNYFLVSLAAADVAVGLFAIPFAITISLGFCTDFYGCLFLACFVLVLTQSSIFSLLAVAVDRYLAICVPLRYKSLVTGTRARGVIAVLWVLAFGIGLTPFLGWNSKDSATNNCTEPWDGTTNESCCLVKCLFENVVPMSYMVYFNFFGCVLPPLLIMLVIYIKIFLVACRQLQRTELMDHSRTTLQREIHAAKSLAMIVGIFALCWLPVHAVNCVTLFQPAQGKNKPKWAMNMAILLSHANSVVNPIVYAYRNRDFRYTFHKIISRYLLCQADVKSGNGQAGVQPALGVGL", "test": "Orthosteric antagonist radioligand binding", "conditions": "concentrations as high as 10 μM"}, "hA1 AR": {"molecular_target": "T3, hA1 AR (Homo sapiens, UniProt P30542)", "T3 sequence (P30542 1-326)": "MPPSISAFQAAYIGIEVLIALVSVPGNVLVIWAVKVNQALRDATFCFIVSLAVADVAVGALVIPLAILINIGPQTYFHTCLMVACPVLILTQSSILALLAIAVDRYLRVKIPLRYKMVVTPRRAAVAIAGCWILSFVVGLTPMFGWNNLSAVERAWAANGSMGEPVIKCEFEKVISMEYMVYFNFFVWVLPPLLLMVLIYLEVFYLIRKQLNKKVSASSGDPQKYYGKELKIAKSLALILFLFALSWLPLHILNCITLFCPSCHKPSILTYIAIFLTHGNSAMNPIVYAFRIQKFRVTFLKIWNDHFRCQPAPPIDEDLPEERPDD", "test": "Orthosteric antagonist radioligand binding", "conditions": "concentrations as high as 10 μM"}, "hA2A AR": {"molecular_target": "hA2A AR (Homo sapiens, UniProt P29274)", "sequence (P29274 whole entry)": "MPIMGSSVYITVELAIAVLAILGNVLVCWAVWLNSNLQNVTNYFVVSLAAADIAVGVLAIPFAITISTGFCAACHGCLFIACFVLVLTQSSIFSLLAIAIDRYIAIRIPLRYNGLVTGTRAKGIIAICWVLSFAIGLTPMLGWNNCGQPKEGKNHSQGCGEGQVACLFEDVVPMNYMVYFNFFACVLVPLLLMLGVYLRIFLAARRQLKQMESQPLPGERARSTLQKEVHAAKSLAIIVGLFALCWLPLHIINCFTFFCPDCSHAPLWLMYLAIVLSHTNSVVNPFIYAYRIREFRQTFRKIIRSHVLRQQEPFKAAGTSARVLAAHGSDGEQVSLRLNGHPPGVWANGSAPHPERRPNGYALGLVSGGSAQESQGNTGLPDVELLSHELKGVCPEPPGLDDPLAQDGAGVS", "test": "Orthosteric antagonist radioligand binding", "conditions": "concentrations as high as 10 μM"}, "[3]": {"test": "Plasma protein binding, human", "conditions": "pH 7.4"}, "hA3AR [4]": {"molecular_target": "T1, hA3AR", "conditions": "modulator 10 μM; 100 μM 51 added; control 26%"}, "[5]": {"test": "Pharmacokinetics in fasted Wistar rats", "format": "in vivo", "conditions": "rat"}, "Caco-2 cells": {"system": "Caco-2 cells", "test": "Caco-2 cell permeability assay", "format": "in vitro ADME, human"}, "[6]": {"test": "pION aqueous solubility pH 7.4", "format": "physicochemical", "conditions": "pION buffer"}, "CYP2C9": {"molecular_target": "CYP2C9 (Homo sapiens, UniProt P11712)", "sequence (P11712 whole entry)": "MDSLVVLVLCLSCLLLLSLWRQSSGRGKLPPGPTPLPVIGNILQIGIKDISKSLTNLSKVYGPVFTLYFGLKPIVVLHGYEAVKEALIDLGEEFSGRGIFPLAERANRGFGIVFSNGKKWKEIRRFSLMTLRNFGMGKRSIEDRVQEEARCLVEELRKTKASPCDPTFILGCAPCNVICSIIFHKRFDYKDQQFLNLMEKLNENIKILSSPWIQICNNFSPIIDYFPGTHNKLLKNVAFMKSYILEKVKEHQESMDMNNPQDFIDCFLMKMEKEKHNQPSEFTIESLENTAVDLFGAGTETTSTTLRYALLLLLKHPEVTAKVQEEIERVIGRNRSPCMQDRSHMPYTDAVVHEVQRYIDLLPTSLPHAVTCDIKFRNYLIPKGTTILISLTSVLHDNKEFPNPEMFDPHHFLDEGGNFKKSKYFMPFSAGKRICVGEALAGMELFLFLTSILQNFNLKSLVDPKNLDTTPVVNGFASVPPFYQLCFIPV", "test": "CYP inhibition"}},
  "note": "Read-outs that look alike come from different tables or passages of the source.",
  "data": [
    {"smiles": "FC(F)(F)[C@H]1CC[C@H](c2nc3c(Nc4ccc(Cl)c(Cl)c4)nc4ccccc4c3[nH]2)CC1", "note": "[Compound 16, 2-(4-(Trifluoromethyl)cyclohexyl)-N-(3,4-dichlorophenyl)-1H-imidazo[4,5-c]quinolin-4-amine]", "values": [
      {"measurement": "enhancement of agonist efficacy at 0.1 μM", "setting": "hA3AR [1]", "result": "significantly enhanced agonist efficacy"},
      {"measurement": "effect on agonist 52 potency", "setting": "hA3AR [1]", "result": "did not influence agonist potency"}
    ]},
    {"smiles": "Clc1ccc(Nc2nc3ccccc3c3nc(C4CCCCC4)[nH]c23)cc1Cl", "note": "[Compound 7, N-(3,4-dichloro-phenyl)-2-cyclohexyl-1H-imidazo[4,5-c]quinolin-4-amine]", "values": [
      {"measurement": "enhancement of agonist efficacy at 0.1 μM", "setting": "hA3AR [2]", "result": "significantly enhanced agonist efficacy"}
    ]},
    {"smiles": "Clc1ccc(Nc2nc3ccccc3c3[nH]c(C4CC4)nc23)cc1Cl", "note": "[Compound 17, 2-(Cyclopropyl)-N-(3,4-dichlorophenyl)-1H-imidazo[4,5-c]quinolin-4-amine]", "values": [
      {"measurement": "inhibition of orthosteric antagonist binding at hA2B AR", "setting": "hA2B AR", "result": "did not inhibit orthosteric antagonist binding"},
      {"measurement": "inhibition of orthosteric antagonist binding at hA1 AR", "setting": "hA1 AR", "result": "did not inhibit orthosteric antagonist binding"},
      {"measurement": "inhibition of orthosteric antagonist binding at hA2A AR", "setting": "hA2A AR", "result": "did not inhibit orthosteric antagonist binding"}
    ]},
    {"smiles": "Clc1ccc(Nc2nc3ccccc3c3[nH]c(C45CC6CC(CC(C6)C4)C5)nc23)cc1Cl", "note": "[Compound 12b]", "values": [
      {"measurement": "enhancement of agonist efficacy at 0.1 μM", "setting": "hA3AR [1]", "result": "significantly enhanced agonist efficacy"},
      {"measurement": "fold increase of agonist efficacy", "setting": "hA3AR [1]; modulator 1 μM", "result": "approximately 2 fold"},
      {"measurement": "fold improvement of agonist potency", "setting": "hA3AR [1]; modulator 1.0 μM, P = 0.058", "result": "~4", "unit": "fold"}
    ]},
    {"smiles": "CC(=O)CC(c1ccccc1)c1c(O)c2ccccc2oc1=O", "note": "(centres unmarked) [Warfarin]", "values": [
      {"measurement": "fraction unbound at 5 h, 10 μM", "setting": "[3]", "result": 0.037}
    ]},
    {"smiles": "Clc1ccc(Nc2nc3ccccc3c3[nH]c(C45CCCC(CCC4)C5)nc23)cc1Cl", "note": "[Compound 26, 2-(Bicyclo[3.3.1]nonan-1-yl)-N-(3,4-dichlorophenyl)-1H-imidazo[4,5-c]quinolin-4-amine]", "values": [
      {"measurement": "effect on agonist 52 potency", "setting": "hA3AR [1]", "result": "neither 12b nor 26 significantly improved agonist potency"}
    ]},
    {"smiles": "Clc1ccc(Nc2nc3ccccc3c3[nH]c(C4CCCCCC4)nc23)cc1Cl", "note": "[Compound 8]", "values": [
      {"measurement": "enhancement of agonist efficacy at 0.1 μM", "setting": "hA3AR [2]", "result": "significantly enhanced agonist efficacy"}
    ]},
    {"smiles": "FC(F)(F)CCC(CCC(F)(F)F)c1nc2c(Nc3ccc(Cl)c(Cl)c3)nc3ccccc3c2[nH]1", "note": "[Compound 15, 2-(1,1,1,7,7,7-Hexafluoroheptan-4-yl)-N-(3,4-dichlorophenyl)-1H-imidazo[4,5-c]quinolin-4-amine]", "values": [
      {"measurement": "radioligand [125I]50 remaining bound 60 min after initiation of dissociation", "setting": "hA3AR [4]", "result": "did not slow agonist dissociation"},
      {"measurement": "effect on agonist 52 potency", "setting": "hA3AR [1]", "result": "did not influence agonist potency"}
    ]},
    {"smiles": "Clc1ccc(Nc2nc3ccccc3c3[nH]c(C4CC5C=CC4CC5)nc23)cc1Cl", "note": "[Compound 29, 2-((1R,2R,4R)- and (1S,2S,4S))-Bicyclo[2.2.2]oct-5-en-2-yl)-N-(3,4-dichlorophenyl)-1H-imidazo[4,5-c]quinolin-4-amine]", "values": [
      {"measurement": "effect on agonist EC50 over modulator concentrations", "setting": "hA3AR [1]; concentration-dependent", "result": "significantly decreasing the potency in a concentration-dependent manner"},
      {"measurement": "effect on agonist 52 potency", "setting": "hA3AR [1]", "result": "did not influence agonist potency"}
    ]},
    {"smiles": "Clc1ccc(Nc2nc3ccccc3c3[nH]c([C@@H]4C[C@@H]5CCC[C@@H](C5)C4)nc23)cc1Cl", "note": "[Compound 27, 2-((1R,3s,5S)-Bicyclo[3.3.1]nonan-3-yl)-N-(3,4-dichlorophenyl)-1H-imidazo[4,5-c]quinolin-4-amine]", "values": [
      {"measurement": "enhancement of agonist efficacy at 0.1 μM", "setting": "hA3AR [1]", "result": "significantly enhanced agonist efficacy"}
    ]},
    {"smiles": "Clc1ccc(Nc2nc3ccccc3c3[nH]c(C45CCC(CC4)C5)nc23)cc1Cl", "note": "[Compound 25, 2-(Bicyclo[2.2.1]heptan-1-yl)-N-(3,4-dichlorophenyl)-1H-imidazo[4,5-c]quinolin-4-amine]", "values": [
      {"measurement": "fold decrease in agonist potency compared to control", "setting": "hA3AR [1]; modulator 1 μM, P = 0.0257", "result": 4, "unit": "fold"}
    ]},
    {"smiles": "Clc1ccc(Nc2nc3ccccc3c3[nH]c(C4CCC=CCC4)nc23)cc1Cl", "note": "[Compound 18, 2-(Cyclohept-4-en-1-yl)-N-(3,4-dichlorophenyl)-1H-imidazo[4,5-c]quinolin-4-amine]", "values": [
      {"measurement": "Cmax", "setting": "[5]; male, Wistar (RccHan:WIST), plasma, po, 10 mg/kg", "result": 4.2, "unit": "µM"},
      {"measurement": "clearance rate from plasma", "setting": "[5]; 1 mg/kg p.o.", "result": 447, "unit": "mL/h/kg"},
      {"measurement": "clearance rate from plasma", "setting": "[5]; 3 mg/kg p.o.", "result": 1580, "unit": "mL/h/kg"},
      {"measurement": "clearance rate from plasma", "setting": "[5]; 10 mg/kg p.o.", "result": 975, "unit": "mL/h/kg"},
      {"measurement": "Caco-2 permeability (Papp) apical to basolateral (A to B)", "setting": "Caco-2 cells; 10 μM", "result": "no measurable permeability"},
      {"measurement": "Caco-2 permeability (Papp) basolateral to apical (B to A)", "setting": "Caco-2 cells; 10 μM", "result": "no measurable permeability"},
      {"measurement": "Caco-2 permeability classification", "setting": "Caco-2 cells; A-B and B-A", "result": "low A-B and B-A permeability"},
      {"measurement": "solubility at 18 h", "setting": "[6]", "result": 0.92, "unit": "µM"}
    ]},
    {"smiles": "Clc1ccc(COC(Cn2ccnc2)c2ccc(Cl)cc2Cl)c(Cl)c1", "note": "(centres unmarked) [Miconazole]", "values": [
      {"measurement": "IC50", "setting": "CYP2C9", "result": 380, "unit": "nM"}
    ]},
    {"smiles": "Clc1ccc(Nc2nc3ccccc3c3[nH]c([C@@H]4CC[C@@H]5C[C@@H]5CC4)nc23)cc1Cl", "note": "[Compound 28, 2-((1R,4r,7S)-bicyclo[5.1.0]octan-4-yl)-N-(3,4-dichlorophenyl)-1H-imidazo[4,5-c]quinolin-4-amine]", "values": [
      {"measurement": "radioligand [125I]50 remaining bound 60 min after initiation of dissociation", "setting": "hA3AR [4]", "result": "slowed agonist radioligand dissociation"},
      {"measurement": "fold increase of agonist efficacy", "setting": "hA3AR [1]; modulator 1 μM", "result": "approximately 2 fold"}
    ]}
  ]
}
